Reference: US20240082296A1, “TREATMENT OF MUSCLE ATROPHY USING DEXTRAN SULFATE” (TX MEDIC AB, priority 2020, published 2024)
Marks after values point to notes of the source that are not given here.

System: severe traumatic brain injury (sTBI) in rats
Experiment: HPLC of purine-pyrimidine / energy metabolites in rat brain after sTBI (Example 4)
Type: in vivo
Procedure: The effects of daily sub-cutaneous injections of dextran sulfate on glutamate excitotoxicity and mitochondrial function after severe traumatic brain injury (sTBI) in rats were evaluated by high-performance liquid chromatography (HPLC) analysis of frozen brain samples.
The experimental protocol used in this study was approved by the Ethical Committee of the Catholic University of Rome, according to international standards and guidelines for animal care. Male Wistar rats of 300-350 g body weight (b.w.) were fed with standard laboratory diet and water ad libitum in a controlled environment.
They were divided into three groups: • 1) n=6 animals subjected to sTBI, with drug administration after 30 minutes and sacrifice at 2 days post-TBI (Acute phase 1) • 2) n=6 animals subjected to severe-TBI, with drug administration after 30 minutes and sacrifice at 7 days post-TBI (Acute phase 2). • 3) n=6 animals subjected to severe-TBI, with drug administration after 3 days and sacrifice at 7 days post-TBI (Chronic phase).
As the anesthetic mixture, animals received 35 mg/kg b.w. ketamine and 0.25 mg/kg b.w. midazolam by i.p. injection. sTBI was induced by dropping a 450 g weight from 2 m height on to the rat head that had been protected by a metal disk previously fixed on the skull, according to the “weight drop” impact acceleration model (Marmarou et al., A new model of diffuse brain injury in rats. Part I: Pathophysiology and biomechanics. J Neurosurg. 1994; 80: 291-300). […] At the end of each period of treatment, rats were anesthetized again and then immediately sacrificed.
The drug treatment was a subcutaneous injection of 0.5 ml of dextran sulfate (Tikomed AB, Viken, Sweden, WO 2016/076780; 15 mg/kg) and administered according to the aforementioned schematic protocol.
An in vivo craniectomy was performed in all animals during anesthesia, after carefully removing the rat's skull, the brain was exposed and removed with a surgical spatula and quickly dropped in liquid nitrogen. After the wet weight (w.w.) determination, tissue preparation was affected as previously disclosed (Tavazzi et al., Cerebral oxidative stress and depression of energy metabolism correlate with severity of diffuse brain injury in rats. Neurosurgery. 2005; 56: 582-589; Vagnozzi et al., Temporal window of metabolic brain vulnerability to concussions: mitochondrial-related impairment-part I. Neurosurgery. 2007; 61: 379-388; Tavazzi et al., Temporal window of metabolic brain vulnerability to concussions: oxidative and nitrosative stresses-part II. Neurosurgery. 2007; 61: 390-395; Amorini et al., Severity of experimental traumatic brain injury modulates changes in concentrations of cerebral free amino acids. J Cell Mol Med. 2017; 21: 530-542.). Briefly, whole brain homogenization was performed with 7 ml of ice-cold, nitrogen-saturated, precipitating solution composed by CH3CN+10 mM KH2PO4, pH 7.40, (3:1; v:v), and using an Ultra-Turrax set at 24,000 rpm/min (Janke & Kunkel, Staufen, Germany). After centrifugation at 20,690×g, for 10 min at 4° C., the clear supernatants were saved, pellets were supplemented with 3 ml of the precipitating solution and homogenized again as described above. A second centrifugation was performed (20,690×g, for 10 min at 4° C.), pellets were saved, supernatants combined with those previously obtained, extracted by vigorous agitation with a double volume of HPLC-grade CHCl3 and centrifuged as above. The upper aqueous phases containing water-soluble low-molecular weight compounds were collected, subjected to chloroform washings for two more times (this procedure allowed the removal of all the organic solvent and of any lipid soluble compound from the buffered tissue extracts), adjusted in volumes with 10 mM KH2PO4, pH 7.40, to have ultimately aqueous 10% tissue homogenates and saved at −80° C. until assayed. […]

[1] = Acute phase 1 (15 mg/kg s.c. 30 min after sTBI, sacrifice 2 days post-TBI)
[2] = Acute phase 2 (15 mg/kg s.c. 30 min after sTBI, sacrifice 7 days post-TBI)

## dextran sulfate
[1]
  ADO concentration: 71.67 ± 15.87 nmol/g (w.w.)
  ADP concentration: 279.34 ± 29.59^b nmol/g (w.w.)
  ADP-ribose concentration: 137.87 ± 43.18^a nmol/g (w.w.)
  AMP concentration: 53.61 ± 17.91^a,c,j nmol/g (w.w.)
  ATP concentration: 1464.25 ± 99.09^a,h nmol/g (w.w.)
  CDP choline concentration: 10.93 ± 3.22^b,h nmol/g (w.w.)
  CDP concentration: 25.53 ± 6.83^a,c nmol/g (w.w.)
  CMP concentration: 30.12 ± 9.97^a,h nmol/g (w.w.)
  CTP concentration: 18.98 ± 6.58^a,g nmol/g (w.w.)
  CoA-SH concentration: 21.61 ± 3.42^a,h nmol/g (w.w.)
  GDP concentration: 158.72 ± 24.57^a nmol/g (w.w.)
  GDP glucose concentration: 38.71 ± 6.86 nmol/g (w.w.)
  GMP concentration: 177.00 ± 32.39^a,g nmol/g (w.w.)
  GSH concentration: 2649.50 ± 397.31^a,d nmol/g (w.w.)
  GSSG concentration: 185.21 ± 48.10 nmol/g (w.w.)
  GTP concentration: 255.29 ± 45.21^a,g nmol/g (w.w.)
  IMP concentration: 67.71 ± 10.63^g,i nmol/g (w.w.)
  MDA concentration: 12.47 ± 2.09^a,c,g nmol/g (w.w.)
  NAA concentration: 6147.91 ± 989.12^a nmol/g (w.w.)
  NADH concentration: 15.49 ± 2.05^c,j nmol/g (w.w.)
  NADPH concentration: 6.22 ± 1.73 nmol/g (w.w.)
  NADP^+ concentration: 17.95 ± 3.28^a nmol/g (w.w.)
  NAD^+ concentration: 404.63 ± 51.10^a,c,i nmol/g (w.w.)
  NO2 concentration: 216.03 ± 41.74^a nmol/g (w.w.)
  NO3 concentration: 210.64 ± 91.95^d nmol/g (w.w.)
  UDP concentration: 61.83 ± 10.23^a,g nmol/g (w.w.)
  UDP-Gal concentration: 119.45 ± 12.50 nmol/g (w.w.)
  UDP-GalNac concentration: 19.17 ± 4.01^a nmol/g (w.w.)
  UDP-Glc concentration: 32.14 ± 4.59^g nmol/g (w.w.)
  UDP-GlcNac concentration: 95.85 ± 19.73^h,i nmol/g (w.w.)
  UMP concentration: 107.80 ± 21.62 nmol/g (w.w.)
  UTP concentration: 123.46 ± 15.42^d nmol/g (w.w.)
  acetyl-CoA concentration: 21.56 ± 6.22^a,g,i nmol/g (w.w.)
  adenine concentration: 44.82 ± 6.31^a,d,g nmol/g (w.w.)
  ascorbic acid concentration: 3733.10 ± 277.88^a,d nmol/g (w.w.)
  creatinine concentration: 24.55 ± 3.20^b,g,i nmol/g (w.w.)
  cytidine concentration: 15.40 ± 3.04 nmol/g (w.w.)
  cytosine concentration: 17.69 ± 2.50^b,d nmol/g (w.w.)
  guanine concentration: 4.80 ± 1.24^b nmol/g (w.w.)
  guanosine concentration: 20.71 ± 5.66 nmol/g (w.w.)
  hypoxanthine concentration: 14.47 ± 2.87^a nmol/g (w.w.)
  inosine concentration: 92.55 ± 31.20^c nmol/g (w.w.)
  malonyl-CoA concentration: 12.33 ± 1.82^b nmol/g (w.w.)
  orotic acid concentration: 8.80 ± 2.45^b,h,j nmol/g (w.w.)
  thymidine concentration: 0.69 ± 0.11 nmol/g (w.w.)
  uracil concentration: 14.56 ± 5.44 nmol/g (w.w.)
  uric acid concentration: 23.62 ± 3.77^a,d,h nmol/g (w.w.)
  uridine concentration: 76.35 ± 12.85^a,c nmol/g (w.w.)
  xanthine concentration: 9.46 ± 2.34^d nmol/g (w.w.)
  β-pseudouridine concentration: 6.65 ± 1.30^g,i nmol/g (w.w.)
[2]
  ADO concentration: 82.11 ± 16.51^a nmol/g (w.w.)
  ADP concentration: 264.07 ± 28.29^b,e,j nmol/g (w.w.)
  ADP-ribose concentration: 141.96 ± 23.56^a,e,j nmol/g (w.w.)
  AMP concentration: 57.70 ± 23.01^a,e,j nmol/g (w.w.)
  ATP concentration: 1632.23 ± 90.07^a,e,j nmol/g (w.w.)
  CDP choline concentration: 6.91 ± 1.86 nmol/g (w.w.)
  CDP concentration: 24.29 ± 6.76^a nmol/g (w.w.)
  CMP concentration: 15.68 ± 2.12^f,j nmol/g (w.w.)
  CTP concentration: 32.63 ± 3.99^e,i nmol/g (w.w.)
  CoA-SH concentration: 30.57 ± 6.02^f nmol/g (w.w.)
  GDP concentration: 126.70 ± 31.35^a,j nmol/g (w.w.)
  GDP glucose concentration: 49.25 ± 10.33^a nmol/g (w.w.)
  GMP concentration: 91.47 ± 12.35^e,i nmol/g (w.w.)
  GSH concentration: 2821.50 ± 242.82^a,e nmol/g (w.w.)
  GSSG concentration: 219.54 ± 53.36 nmol/g (w.w.)
  GTP concentration: 336.65 ± 35.18^a,e,j nmol/g (w.w.)
  IMP concentration: 102.63 ± 22.09^a nmol/g (w.w.)
  MDA concentration: 4.82 ± 1.73^a,e,i nmol/g (w.w.)
  NAA concentration: 7262.84 ± 749.73^a,e nmol/g (w.w.)
  NADH concentration: 13.12 ± 4.19^e nmol/g (w.w.)
  NADPH concentration: 7.05 ± 2.21 nmol/g (w.w.)
  NADP^+ concentration: 21.27 ± 4.19^b,e,j nmol/g (w.w.)
  NAD^+ concentration: 401.18 ± 34.53^a,e,i nmol/g (w.w.)
  NO2 concentration: 226.40 ± 30.95^b nmol/g (w.w.)
  NO3 concentration: 198.56 ± 25.93^e,i nmol/g (w.w.)
  UDP concentration: 40.38 ± 8.50^a,i nmol/g (w.w.)
  UDP-Gal concentration: 145.14 ± 27.76 nmol/g (w.w.)
